{"source": "ChEMBL document CHEMBL4431301", "about": "“The Medicinal Chemistry of Dengue Virus” (J Med Chem, 2016)", "key": {"Genome polyprotein [1]": {"target": "T1, Genome polyprotein (dengue virus type 2, UniProt P29990)", "assay": "Inhibition of Dengue virus 2 NS2B-NS3 protease using Abz-Nle-Lys-Arg-Arg-Ser-3-(NO2)Tyr as substrate preincubated for 15 mins followed by addition of substrate measured after 15 mins by fluorescence assay"}, "[2]": {"assay": "Binding affinity to His-tagged Dengue virus 3 methyltransferase expressed in Escherichia coli Rosetta 2(DE3) by VP-ITC isothermal titration calorimetry", "parameters": "species or system dengue virus type 3"}, "[3]": {"assay": "Inhibition of Dengue virus guanine N-7 methyltransferase using RNA substrate after 20 mins in presence of [methyl-3H]-AdoMet by microbeta counting analysis"}, "dengue virus type 3 [4]": {"system": "dengue virus type 3", "assay": "Potency index, ratio of S-adenosyl-L-methionine Kd to sinefungin Kd for His-tagged Dengue virus 3 methyltransferase expressed in Escherichia coli Rosetta 2(DE3)"}, "Nonstructural protein 5": {"target": "Nonstructural protein 5 (Dengue virus, UniProt V5TFZ2)", "sequence (V5TFZ2 whole entry)": "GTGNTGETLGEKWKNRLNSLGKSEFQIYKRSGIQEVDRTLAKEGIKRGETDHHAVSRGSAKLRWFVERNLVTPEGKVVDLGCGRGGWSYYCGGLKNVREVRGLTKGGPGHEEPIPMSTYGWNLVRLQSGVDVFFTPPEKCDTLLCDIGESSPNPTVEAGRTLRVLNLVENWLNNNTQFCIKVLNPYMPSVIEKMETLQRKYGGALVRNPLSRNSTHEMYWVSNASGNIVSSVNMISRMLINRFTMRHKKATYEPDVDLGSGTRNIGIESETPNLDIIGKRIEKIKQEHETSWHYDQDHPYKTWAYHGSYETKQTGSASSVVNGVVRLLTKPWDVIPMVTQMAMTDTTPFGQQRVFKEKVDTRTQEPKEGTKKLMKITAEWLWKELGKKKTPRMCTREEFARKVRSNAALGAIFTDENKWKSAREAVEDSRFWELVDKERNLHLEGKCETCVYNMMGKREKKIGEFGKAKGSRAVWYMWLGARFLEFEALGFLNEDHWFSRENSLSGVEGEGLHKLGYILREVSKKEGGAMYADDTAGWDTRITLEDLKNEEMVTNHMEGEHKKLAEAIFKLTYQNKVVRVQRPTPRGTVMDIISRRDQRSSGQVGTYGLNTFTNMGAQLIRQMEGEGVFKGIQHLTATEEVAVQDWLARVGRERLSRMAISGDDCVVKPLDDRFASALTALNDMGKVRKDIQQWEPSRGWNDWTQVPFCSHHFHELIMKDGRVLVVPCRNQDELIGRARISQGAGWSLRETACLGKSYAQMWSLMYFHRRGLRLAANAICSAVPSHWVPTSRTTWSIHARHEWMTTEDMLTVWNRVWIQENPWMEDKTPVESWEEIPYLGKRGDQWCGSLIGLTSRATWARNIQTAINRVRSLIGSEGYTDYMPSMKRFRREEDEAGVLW", "assay": "Inhibition of Dengue virus ribose 2'-O methyltransferase using RNA substrate after 20 mins in presence of [methyl-3H]-AdoMet by microbeta counting analysis"}, "dengue virus type 3 [5]": {"system": "dengue virus type 3", "assay": "Antiviral activity against Dengue virus 3 H87 infected in african green monkey Vero cells assessed as inhibition of viral yield after 48 hrs", "type": "functional, organism-based"}, "dengue virus type 1": {"system": "dengue virus type 1", "assay": "Antiviral activity against Dengue virus 1 Hawaii infected in african green monkey Vero cells assessed as inhibition of viral yield after 48 hrs", "type": "functional, organism-based"}, "dengue virus type 4": {"system": "dengue virus type 4", "assay": "Antiviral activity against Dengue virus 4 8124 infected in african green monkey Vero cells assessed as inhibition of viral yield after 48 hrs", "type": "functional, organism-based", "conditions": "Dengue virus, 8124, Vero"}, "dengue virus type 2 [6]": {"system": "dengue virus type 2", "assay": "Antiviral activity against Dengue virus 2 NGC infected in african green monkey Vero cells assessed as inhibition of viral yield after 48 hrs", "type": "functional, organism-based"}, "Genome polyprotein [7]": {"target": "T1, Genome polyprotein", "assay": "Inhibition of RNA unwinding activity of thioredoxin/His6 tagged Dengue virus 2 TSV01 NS3 helicase (171 to 618 residues) expressed in Escherichia coli Rosetta (DE3) using Cy5-MBHA as substrate by fluorescence assay"}, "Genome polyprotein [8]": {"target": "T1, Genome polyprotein", "assay": "Inhibition of Dengue virus 2 NS3 helicase incubated for 2 mins followed by ATP addition"}, "dengue virus type 2 [9]": {"system": "dengue virus type 2", "assay": "Antiviral activity against Dengue virus 2 infected in BHK21 cells assessed as reduction in virus replication after 72 hrs by renilla luciferase reporter gene assay", "type": "functional, organism-based", "conditions": "BHK-21, 72 h"}, "dengue virus type 2 [10]": {"system": "dengue virus type 2", "assay": "Antiviral activity against Dengue virus 2 3295 infected in BHK21 cells after 48 hrs by CFI assay", "type": "functional, organism-based", "conditions": "Dengue virus, 3295, BHK-21, 48 h"}, "dengue virus type 2 [11]": {"system": "dengue virus type 2", "assay": "Antiviral activity against Dengue virus 2 16681 infected in human HuH7 cells after 72 hrs by indirect immunofluorescent flow cytometry", "type": "functional, organism-based", "conditions": "Dengue virus, 16681, Huh-7, 72 h"}, "dengue virus type 2 [12]": {"system": "dengue virus type 2", "assay": "Antiviral activity against Dengue virus 2 NGC infected in human A549 cells assessed as reduction in virus replication after 48 hrs by renilla luciferase reporter gene assay", "type": "functional, organism-based", "conditions": "A549, 48 h"}, "[13]": {"assay": "Cytotoxicity against human HuH7 cells assessed as cell viability after 48 hrs by CellTiter Glo assay", "type": "cell-based, Huh-7"}, "dengue virus type 2 [14]": {"system": "dengue virus type 2", "assay": "Antiviral activity against Dengue virus 2 NGC infected in human HuH7 cells assessed as reduction in virus replication after 48 hrs by renilla luciferase reporter gene assay", "type": "functional, organism-based", "conditions": "Huh-7, 48 h"}, "dengue virus type 2 [15]": {"system": "dengue virus type 2", "assay": "Antiviral activity against Dengue virus 2 NGC infected in human HuH7 cells assessed as reduction in viral titer after 24 hrs", "type": "functional", "conditions": "Huh-7, 24 h"}, "dengue virus type 2 [16]": {"system": "dengue virus type 2", "assay": "Antiviral activity against Dengue virus 2 NGC infected in BHK21 cells after 48 hrs by plaque reduction assay", "type": "functional, organism-based", "conditions": "BHK-21, 48 h"}, "Junin virus": {"system": "Junin virus", "assay": "Antiviral activity against Junin virus IV4454 infected in african green monkey Vero cells assessed as inhibition of viral yield after 48 hrs", "type": "functional, organism-based", "conditions": "Mammarenavirus juninense"}}, "note": "pEC50, pIC50, pKd, pKi: −log10 of the molar value. Where a SMILES comes first, the peptide text is derived from it. [ ]: non-standard residue; d: D form. The star is where a group is joined. Nle = CCCC[C@H](N)C(=O)O; Bz = O=C(c1ccccc1)*", "data": [{"smiles": "CCCC[C@H](NC(=O)[C@H](CCCCN)NC(=O)[C@H](CCCNC(=N)N)NC(=O)c1ccc(/C=C(\\C#N)C(=O)NC2CC2)cc1)C(N)=O", "values": [{"measurement": "pKi", "setting": "Genome polyprotein [1]", "result": 5.31}]}, {"smiles": "Nc1ncnc2c1ncn2[C@@H]1O[C@H](C[C@@H](N)CC[C@H](N)C(=O)O)[C@@H](O)[C@H]1O", "note": "[SINEFUNGIN]", "values": [{"measurement": "pKd", "setting": "[2]", "result": 6.87}, {"measurement": "pIC50", "setting": "[3]", "result": 7.52}, {"measurement": "Ratio", "setting": "dengue virus type 3 [4]", "result": 6}, {"measurement": "pIC50", "setting": "Nonstructural protein 5", "result": 7.39}]}, {"smiles": "C=CCn1c2ccc(Cl)cc2c(=O)c2cccc(OC)c21", "values": [{"measurement": "pEC50", "setting": "dengue virus type 3 [5]", "result": "4.57 to 4.87"}, {"measurement": "pEC50", "setting": "dengue virus type 1", "result": "4.57 to 4.87"}, {"measurement": "pEC50", "setting": "dengue virus type 4", "result": "4.57 to 4.87"}, {"measurement": "pEC50", "setting": "dengue virus type 2 [6]", "result": "4.57 to 4.87"}]}, {"smiles": "Cc1ccc2nc(-c3ccc4nc(-c5ccc(NC(=O)c6ccc7nc(-c8ccc(N)cc8)sc7c6)cc5)sc4c3)sc2c1S(=O)(=O)O", "values": [{"measurement": "pIC50", "setting": "Genome polyprotein [7]", "result": 5.82}, {"measurement": "pIC50", "setting": "Genome polyprotein [8]", "result": 6.30}, {"measurement": "pEC50", "setting": "dengue virus type 2 [9]", "result": 5.15}]}, {"smiles": "O[C@H]1[C@H](O)[C@@H](O)CN2CC[C@H](O)[C@H]12", "note": "[CASTANOSPERMINE]", "values": [{"measurement": "pEC50", "setting": "dengue virus type 2 [10]", "result": 4.55}]}, {"smiles": "NC(=O)c1ncn([C@@H]2O[C@H](CO)[C@@H](O)[C@H]2O)n1", "note": "[RIBAVIRIN]", "values": [{"measurement": "pEC50", "setting": "dengue virus type 2 [11]", "result": 4.40}]}, {"smiles": "CC[C@H](C)C(=O)O[C@H]1CCC=C2C=C[C@H](C)[C@H](CC[C@@H]3C[C@@H](O)CC(=O)O3)[C@H]21", "note": "[MEVASTATIN]", "values": [{"measurement": "pEC50", "setting": "dengue virus type 2 [12]", "result": "5.06 to 5.74"}]}, {"smiles": "CCN(CC)CCO[C@H]1CC[C@@]2(C)C(=CC[C@@H]3[C@@H]2CC[C@]2(C)C(=O)CC[C@@H]32)C1", "values": [{"measurement": "CC50 at 48 h", "setting": "[13]", "result": 34.4, "unit": "µM"}, {"measurement": "pEC50", "setting": "dengue virus type 2 [14]", "result": 5.54}]}, {"smiles": "CCCC[C@H](NC(=O)[C@H](CCCCN)NC(=O)[C@H](CCCNC(=N)N)NC(=O)c1ccccc1)C(N)=O", "note": "(Bz-Arg-Lys-[Nle]-NH2)", "values": [{"measurement": "pKi", "setting": "Genome polyprotein [1]", "result": 4.81}]}, {"smiles": "C=C1C(=O)OC(CCCCCCCC)C1C(=O)O", "note": "(stereo unspecified)", "values": [{"measurement": "CC50 at 48 h", "setting": "[13]", "result": "> 100", "unit": "µM"}, {"measurement": "pEC50", "setting": "dengue virus type 2 [14]", "result": 5.24}]}, {"smiles": "CN1CCN(CCOc2cc(OC3CCOCC3)c3c(Nc4c(Cl)ccc5c4OCO5)ncnc3c2)CC1", "note": "[SARACATINIB]", "values": [{"measurement": "EC90", "setting": "dengue virus type 2 [15]", "result": 12.2, "unit": "µM"}]}, {"smiles": "CC(C)n1c(/C=C/C(O)CC(O)CC(=O)O)c(-c2ccc(F)cc2)c2ccccc21", "note": "(stereo unspecified) [FLUVASTATIN]", "values": [{"measurement": "pEC50", "setting": "dengue virus type 2 [12]", "result": "5.06 to 5.74"}]}, {"smiles": "C[S+](CC[C@H](N)C(=O)[O-])C[C@H]1O[C@@H](n2cnc3c(N)ncnc32)[C@H](O)[C@@H]1O", "note": "(stereo partly specified) [ADEMETIONINE]", "values": [{"measurement": "pKd", "setting": "[2]", "result": 6.08}]}, {"smiles": "COc1c(C)c2c(c(O)c1C/C=C(\\C)CCC(=O)O)C(=O)OC2", "note": "[MYCOPHENOLIC ACID]", "values": [{"measurement": "pEC50", "setting": "dengue virus type 2 [11]", "result": 5.72}]}, {"smiles": "CCCCCCCCCN1C[C@H](O)[C@@H](O)[C@H](O)[C@H]1CO", "values": [{"measurement": "pEC50", "setting": "dengue virus type 2 [16]", "result": 6.00}]}, {"smiles": "C=CCn1c2cc(Cl)ccc2c(=O)c2cccc(OC)c21", "values": [{"measurement": "pEC50", "setting": "Junin virus", "result": "5.26 to 5.60"}, {"measurement": "pEC50", "setting": "dengue virus type 3 [5]", "result": "4.80 to 5.08"}, {"measurement": "pEC50", "setting": "dengue virus type 1", "result": "4.80 to 5.08"}, {"measurement": "pEC50", "setting": "dengue virus type 4", "result": 4.70}, {"measurement": "pEC50", "setting": "dengue virus type 2 [6]", "result": "5.26 to 5.60"}]}, {"smiles": "CCC(C)(C)C(=O)O[C@H]1C[C@@H](C)C=C2C=C[C@H](C)[C@H](CC[C@@H]3C[C@@H](O)CC(=O)O3)[C@H]21", "note": "[SIMVASTATIN]", "values": [{"measurement": "pEC50", "setting": "dengue virus type 2 [12]", "result": "5.06 to 5.74"}]}]}
